The text below walks through data of ChEMBL document CHEMBL5724914, “Linking interpersonal differences in gut microbiota composition and drug biotransformation activity” (2024).

Each structure is given as a SMILES string.

For data set [1] the following is noted: human gut metagenome, 24 h, 2 µM.
Data set [2] in a line: The drug is tested on Z-029 corresponding to rat gut metagenome with ENA study accession number: PRJEB37062 and ENA sample accession number: ERS12561828 for biotransformation under anaerobic condition. The drug concentrations were measured over 9 timepoints collected between 0 and 24 hours of incubation by liquid-chromatography-coupled mass spectrometry (LC–MS). The settings on record: 2 µM.

For data set [3] the following is noted: human gut metagenome, 24 h, 2 µM. This is another data set of the same source.
The conditions of data set [4]: human gut metagenome, 24 h, 2 µM. The source holds these as a separate data set.
The conditions of data set [5]: human gut metagenome, 24 h, 2 µM. This is another data set of the same source.
The nature of data set [6]: The drug is tested on Z-001 corresponding to mouse gut metagenome with ENA study accession number: PRJEB37062 and ENA sample accession number: ERS12561801 for biotransformation under anaerobic condition. The drug concentrations were measured over 9 timepoints collected between 0 and 24 hours of incubation by liquid-chromatography-coupled mass spectrometry (LC–MS). The settings on record: 2 µM.

The conditions of data set [7]: human gut metagenome, 24 h, 2 µM. The source holds these as a separate data set.
Data set [8] in a line: The drug is tested on Z-011 corresponding to mouse gut metagenome with ENA study accession number: PRJEB37062 and ENA sample accession number: ERS12561811 for biotransformation under anaerobic condition. The drug concentrations were measured over 9 timepoints collected between 0 and 24 hours of incubation by liquid-chromatography-coupled mass spectrometry (LC–MS). The settings on record: 2 µM.

The conditions of data set [9]: human gut metagenome, 24 h, 2 µM. The source holds these as a separate data set.
For data set [10] the following is noted: human gut metagenome, 24 h, 2 µM. The source holds these as a separate data set.
For data set [11] the following is noted: human gut metagenome, 24 h, 2 µM. The source holds these as a separate data set.
Data set [12] can be described thus: The drug is tested on Z-022 corresponding to mouse gut metagenome with ENA study accession number: PRJEB37062 and ENA sample accession number: ERS12561821 for biotransformation under anaerobic condition. The drug concentrations were measured over 9 timepoints collected between 0 and 24 hours of incubation by liquid-chromatography-coupled mass spectrometry (LC–MS). The settings on record: 2 µM.

A short description of data set [13]: The drug is tested on WLS-310 corresponding to human gut metagenome with ENA study accession number: PRJEB37062 and ENA sample accession number: ERS12561785 for biotransformation under anaerobic condition. The drug concentrations were measured over 9 timepoints collected between 0 and 24 hours of incubation by liquid-chromatography-coupled mass spectrometry (LC–MS). The settings on record: 2 µM.

The nature of data set [14]: The drug is tested on Z-013 corresponding to rabbit gut metagenome with ENA study accession number: PRJEB37062 and ENA sample accession number: ERS12561813 for biotransformation under anaerobic condition. The drug concentrations were measured over 9 timepoints collected between 0 and 24 hours of incubation by liquid-chromatography-coupled mass spectrometry (LC–MS). The settings on record: 2 µM.

For data set [15] the following is noted: human gut metagenome, 24 h, 2 µM. This is another data set of the same source.
Data set [16] is described as follows: The drug is tested on Z-025 corresponding to rabbit gut metagenome with ENA study accession number: PRJEB37062 and ENA sample accession number: ERS12561824 for biotransformation under anaerobic condition. The drug concentrations were measured over 9 timepoints collected between 0 and 24 hours of incubation by liquid-chromatography-coupled mass spectrometry (LC–MS). The settings on record: 2 µM.

Data set [17] can be described thus: The drug is tested on Z-018 corresponding to pig gut metagenome with ENA study accession number: PRJEB37062 and ENA sample accession number: ERS12561817 for biotransformation under anaerobic condition. The drug concentrations were measured over 9 timepoints collected between 0 and 24 hours of incubation by liquid-chromatography-coupled mass spectrometry (LC–MS). The settings on record: 2 µM.

Data set [18] in a line: The drug is tested on Z-012 corresponding to metagenome with ENA study accession number: PRJEB37062 and ENA sample accession number: ERS12561812 for biotransformation under anaerobic condition. The drug concentrations were measured over 9 timepoints collected between 0 and 24 hours of incubation by liquid-chromatography-coupled mass spectrometry (LC–MS). The settings on record: 2 µM.

The conditions of data set [19]: human gut metagenome, 24 h, 2 µM. This is another data set of the same source.
Data set [20] is described as follows: The drug is tested on WLS-077 corresponding to human gut metagenome with ENA study accession number: PRJEB37062 and ENA sample accession number: ERS12561750 for biotransformation under anaerobic condition. The drug concentrations were measured over 9 timepoints collected between 0 and 24 hours of incubation by liquid-chromatography-coupled mass spectrometry (LC–MS). The settings on record: 2 µM.
Note: call rule not given here.

As for `CC(=O)O[C@]1(C(C)=O)CC[C@H]2[C@@H]3C=C(C)C4=CC(=O)CC[C@]4(C)[C@H]3CC[C@@]21C` [MEGESTROL ACETATE], the “Bacterial Biotransformation” value in [1] is reported as “Compound metabolized”; in data set [2], “Compound NOT metabolized”; in [3], “Compound metabolized”; in [4] it was “Compound metabolized”; in [5], “Compound metabolized”; in data set [6], “Compound metabolized”. Also, the “Bacterial Biotransformation” value in [7] is given as “Compound metabolized”; in data set [8], “Compound metabolized”; in data set [9], “Compound metabolized”; in [10], “Compound NOT metabolized”; in [11], “Compound metabolized”; in data set [12], “Compound NOT metabolized”. The “Bacterial Biotransformation” value in data set [13], in [14], in [15], in data set [16], in data set [17] and in [18] was “Compound metabolized” throughout. Further, the “Bacterial Biotransformation” value in data set [19] and in [20] was “Compound metabolized” each time.

As for `O=C(O)CCC(=O)O.O=C(O[C@H]1CN2CCC1CC2)N1CCc2ccccc2[C@@H]1c1ccccc1` [SOLIFENACIN SUCCINATE], the “Bacterial Biotransformation” value in data set [1] is given as “Compound metabolized”; in data set [2], “Compound NOT metabolized”; in data set [3] it was “Compound NOT metabolized”; in data set [4] it was “Compound metabolized”; in [5], “Compound metabolized”; in [6], “Compound NOT metabolized”. The “Bacterial Biotransformation” value is reported as “Compound metabolized” in [7]; “Compound NOT metabolized” in [8]; “Compound NOT metabolized” in [9]; “Compound NOT metabolized” in data set [10]; “Compound NOT metabolized” in [11]; “Compound metabolized” in data set [12]. For the same compound, the “Bacterial Biotransformation” value is “Compound NOT metabolized” in [13]; “Compound NOT metabolized” in data set [14]; “Compound NOT metabolized” in data set [15]; “Compound metabolized” in [16]; “Compound metabolized” in data set [17]; “Compound metabolized” in [18]. Further, the “Bacterial Biotransformation” value in data set [19] and in data set [20] was “Compound NOT metabolized” throughout.

In the case of `COc1cc2nc(N3CCN(C(=O)C4CCCO4)CC3)nc(N)c2cc1OC` (stereo not given) [TERAZOSIN], the “Bacterial Biotransformation” value in data set [1], in data set [2], in data set [3], in [4], in data set [5] and in [6] was “Compound NOT metabolized” each time. Besides, the “Bacterial Biotransformation” value in data set [7] is recorded as “Compound NOT metabolized”; in [8], “Compound metabolized”; in data set [9], “Compound NOT metabolized”; in data set [10] it was “Compound NOT metabolized”; in data set [11], “Compound NOT metabolized”; in data set [12] it was “Compound NOT metabolized”. In addition, the “Bacterial Biotransformation” value in data set [13] is on record as “Compound metabolized”; in [14] it was “Compound NOT metabolized”; in [15], “Compound metabolized”; in data set [16], “Compound NOT metabolized”; in [17], “Compound metabolized”; in data set [18], “Compound NOT metabolized”. For the same compound, the “Bacterial Biotransformation” value in data set [19] and in [20] was “Compound NOT metabolized” throughout.

Take `CC(C)[C@H]1CC[C@H](C(=O)N[C@H](Cc2ccccc2)C(=O)O)CC1` [NATEGLINIDE]: the “Bacterial Biotransformation” value is “Compound metabolized” in data set [1]; “Compound NOT metabolized” in data set [2]; “Compound metabolized” in data set [3]; “Compound metabolized” in [4]; “Compound metabolized” in [5]; “Compound NOT metabolized” in data set [6]. In addition, the “Bacterial Biotransformation” value is reported as “Compound metabolized” in data set [7]; “Compound metabolized” in data set [8]; “Compound metabolized” in data set [9]; “Compound metabolized” in data set [10]; “Compound metabolized” in [11]; “Compound NOT metabolized” in data set [12]. Besides, the “Bacterial Biotransformation” value in data set [13] is listed as “Compound metabolized”; in data set [14], “Compound metabolized”; in data set [15], “Compound metabolized”; in [16] it was “Compound metabolized”; in [17], “Compound metabolized”; in data set [18], “Compound NOT metabolized”. The “Bacterial Biotransformation” value in data set [19] and in [20] was “Compound metabolized” each time.

For `CCN(C)C(=O)Oc1cccc([C@H](C)N(C)C)c1.O=C(O)C(O)C(O)C(=O)O` [RIVASTIGMINE TARTRATE], the “Bacterial Biotransformation” value in data set [1] was “Compound NOT metabolized”; in [2], “Compound NOT metabolized”; in data set [3], “Compound NOT metabolized”; in [4], “Compound NOT metabolized”; in data set [5], “Compound metabolized”; in [6], “Compound NOT metabolized”. Moreover, the “Bacterial Biotransformation” value in data set [7] is recorded as “Compound NOT metabolized”; in [8], “Compound NOT metabolized”; in [9], “Compound NOT metabolized”; in data set [10], “Compound NOT metabolized”; in data set [11], “Compound metabolized”; in [12] it was “Compound NOT metabolized”. In addition, the “Bacterial Biotransformation” value in [13], in data set [14], in data set [15], in data set [16], in data set [17] and in data set [18] was “Compound NOT metabolized” each time. Also, the “Bacterial Biotransformation” value in data set [19] and in data set [20] was “Compound NOT metabolized” throughout.

With `Nc1nc(NC2CC2)c2ncn([C@H]3C=C[C@@H](CO)C3)c2n1.Nc1nc(NC2CC2)c2ncn([C@H]3C=C[C@@H](CO)C3)c2n1.O=S(=O)(O)O` [ABACAVIR SULFATE], the “Bacterial Biotransformation” value is “Compound metabolized” in data set [1]; “Compound NOT metabolized” in data set [2]; “Compound metabolized” in [3]; “Compound metabolized” in data set [4]; “Compound metabolized” in data set [5]; “Compound NOT metabolized” in data set [6]. In addition, the “Bacterial Biotransformation” value is “Compound metabolized” in [7]; “Compound metabolized” in [8]; “Compound metabolized” in data set [9]; “Compound NOT metabolized” in [10]; “Compound metabolized” in data set [11]; “Compound metabolized” in [12]. Also, the “Bacterial Biotransformation” value was “Compound NOT metabolized” in [13]; “Compound NOT metabolized” in data set [14]; “Compound metabolized” in data set [15]; “Compound NOT metabolized” in data set [16]; “Compound NOT metabolized” in data set [17]; “Compound NOT metabolized” in [18]. The “Bacterial Biotransformation” value in [19] and in data set [20] was “Compound metabolized” each time.
